Measurements reported in ChEMBL document CHEMBL5244229, “Thiazole-containing compounds as therapeutic targets for cancer therapy” (Eur J Med Chem, 2020).
Values after ≈ are worked out from the molar mass of the structure shown.

Tests used:
A549 [1] = test: Anticancer activity against human A549 cells assessed as reduction of cell viability at 25 micromol relative to control; type: functional; details: dose 25 µmol
A549 [2] = test: Anticancer activity against human A549 cells assessed as reduction of cell viability at 100 micromol relative to control; type: functional; details: dose 100 µmol
Cytochrome P450 = test: Inhibition of CYP450 in human liver microsomes; type: ADME, Microsome
PC-3 [3] = test: Cytotoxicity against human PC-3 cells; type: functional
PC-3 [4] = test: Anticancer activity against human PC-3 cells; type: functional, cell-based
HCT-116 [5] = test: Anticancer activity against human HCT-116 cells; type: functional, cell-based
T47D = test: Cytotoxicity against human T47D cells; type: functional, cell-based
K562 = test: Anticancer activity against human K562 cells; type: functional, cell-based
SMMC-7721 = test: Cytotoxicity against human SMMC-7721 cells; type: functional, cell-based
HepG2 [6] = test: Anticancer activity against human HepG2 cells; type: functional, cell-based
HCT-116 [7] = test: Antiproliferative activity against human HCT-116 cells assessed as cell growth inhibition; type: functional
HepG2 [8] = test: Anticancer activity against human HepG2 cells assessed as inhibition of cell proliferation at 25 uM measured after 24 hrs by MTT assay; type: functional, cell-based; details: HepG2, 24 h
HepG2 [9] = test: Anticancer activity against human HepG2 cells assessed as inhibition of cell proliferation at 50 uM measured after 24 hrs by MTT assay; type: functional, cell-based; details: HepG2, 24 h
MCF7 = test: Cytotoxicity against human MCF7 cells; type: functional, cell-based
HCC 2998 = test: Cytotoxicity against human HCC 2998 cells; type: functional
IGROV-1 = test: Cytotoxicity against human IGROV-1 cells; type: functional
OVCAR-4 = test: Cytotoxicity against human OVCAR-4 cells; type: functional
NCI-H460 [10] = test: Cytotoxicity against human NCI-H460 cells; type: functional, cell-based
NCI-H226 = test: Cytotoxicity against human NCI-H226 cells; type: functional
OVCAR-5 = test: Cytotoxicity against human OVCAR-5 cells; type: functional
HepG2 [11] = test: Antiproliferative activity against human HepG2 cells assessed as reduction in cell viability; type: functional, cell-based
HeLa [12] = test: Antiproliferative activity against human HeLa cells assessed as reduction in cell viability; type: functional, cell-based
Hs-578T = test: Antiproliferative activity against human Hs-578T cells assessed as reduction in cell viability; type: functional, cell-based
A549 [13] = test: Antiproliferative activity against human A549 cells; type: functional, cell-based
HT-29 = test: Cytotoxicity against human HT-29 cells; type: functional, cell-based
[14] = Cytotoxicity against human U-87 MG cells; type: functional, cell-based, U-87MG ATCC
MKN-45 = test: Cytotoxicity against human MKN-45 cells; type: functional, cell-based
NCI-H460 [15] = test: Potency index, ratio of MKT-077 IC50 to test compound IC50 for antitumor activity against human NCI-H460 cells; type: functional
NCI-H460 [16] = test: Antitumor activity against human NCI-H460 cells; type: functional, cell-based
SK-NEP-1 = test: Anticancer activity against human SK-NEP-1 cells assessed as inhibition of cell growth; type: functional, cell-based
Ca-Ski = test: Anticancer activity against human Ca-Ski cells assessed as inhibition of cell growth; type: functional, cell-based
[17] = Anticancer activity against human PBMC cells; type: functional, cell-based
A-431 = test: Antiproliferative activity against human A-431 cells assessed as reduction in cell viability incubated for 4 days by MTT assay; type: functional, cell-based; details: A-431, 96 h
HepG2 [18] = test: Antiproliferative activity against human HepG2 cells assessed as reduction in cell viability incubated for 4 days by MTT assay; type: functional, cell-based; details: HepG2, 96 h
A549 [19] = test: Antiproliferative activity against human A549 cells assessed as reduction in cell viability incubated for 4 days by MTT assay; type: functional, cell-based; details: A549, 96 h
[20] = Antiproliferative activity against human SK-RC-52 cells assessed as reduction in cell viability incubated for 4 days by MTT assay; type: functional, cell-based; details: SK-RC-52, 96 h
SW-620 = test: Antiproliferative activity against human SW620 cells assessed as reduction in cell viability incubated for 4 days by MTT assay; type: functional, cell-based; details: SW-620, 96 h
MDA-MB-231 [21] = test: Antiproliferative activity against human MDA-MB-231 cell line assessed as cell growth inhibition by MTT assay; type: functional, cell-based
HeLa [22] = test: Antiproliferative activity against human HeLa cells assessed as cell growth inhibition by MTT assay; type: functional, cell-based
MDA-MB-231 [23] = test: Antiproliferative activity against human MDA-MB-231 cells assessed as reduction in cell growth after 72 hrs; type: functional, cell-based; details: MDA-MB-231, 72 h
HeLa [24] = test: Antiproliferative activity against human HeLa cells assessed as reduction in cell growth after 72 hrs; type: functional, cell-based
[25] = Anticancer activity against human LNCaP/AR cells; type: functional, cell-based

c1ccc(Nc2nc3ccc4cn[nH]c4c3s2)cc1
% viability reduction (A549 [1]): 72.1%
% viability reduction (A549 [2]): 78.8%

Cc1ncc(C2=CCC3C4CC=C5CC(O)CCC5(C)C4CCC23C)s1 (stereo not given)
inhibition (INH) (Cytochrome P450): 72.1%

Cc1c(-c2csc(N)n2)sc2sc(-c3csc(N)n3)c(-c3ccccc3)c12
Activity (PC-3 [3]): >30%
IC50 (PC-3 [4]): 24200 nM

Nc1nc(-c2ccc(Oc3ccc(Cl)cc3)cc2)cs1
IC50 (HCT-116 [5]): 3810 nM
IC50 (T47D): 917 nM
IC50 (K562): 12400 nM
IC50 (SMMC-7721): 1610 nM
IC50 (HepG2 [6]): 4670 nM

Clc1nccc2c(-c3csc(-c4c[nH]c5ncc(Br)cc45)n3)c[nH]c12
GI50 (HCT-116 [7]): 2350 nM

Cc1ccc(C2NC(=S)Nc3nc(Nc4ccc(S(N)(=O)=O)cc4)sc32)cc1 (stereo not given)
IC50 (HepG2 [8]): 43000 nM

NS(=O)(=O)c1ccc(N2C(=O)CSC2c2ccc([N+](=O)[O-])cc2)cc1 (stereo not given)
IC50 (HepG2 [9]): 46000 nM

Cc1cc(-c2nc3cc(F)ccc3s2)ccc1N
GI50 (MCF7): < 100 nM
GI50 (HCC 2998): < 10 nM
GI50 (IGROV-1): < 10 nM
GI50 (OVCAR-4): < 100 nM
GI50 (NCI-H460 [10]): < 10 nM
GI50 (NCI-H226): < 10 nM
GI50 (OVCAR-5): < 100 nM

CNc1nc(CC(=O)N/N=C/c2coc3ccccc3c2=O)cs1
IC50 (HepG2 [11]): 5080 nM
IC50 (HeLa [12]): 823 nM
IC50 (Hs-578T): 4950 nM

CCOC(=O)/C(C(C)=O)=C1/SC=C(n2c(CC#N)nc3ccccc32)N1c1ccccc1
IC50 (A549 [13]): 230 nM
IC50 (SMMC-7721): 230 nM
IC50 (HT-29): 230 nM
IC50 [14]: 230 nM
IC50 (NCI-H460 [10]): 230 nM
IC50 (MKN-45): 230 nM

CCN1C(=O)/C(=C2\Sc3ccccc3N2C)S/C1=N\[n+]1cccc2ccccc21.[I-]
Ratio IC50 (NCI-H460 [15]): 216.7
IC50 (NCI-H460 [16]): 6 nM

CO[C@@H]1C[C@H](C[C@@H](C)[C@@H](OC(=O)C2CCCCN2C)C(C)C)CC[C@H]1OCC/N=c1\sc2cc(Cl)ccc2n1C (stereo not given in full)
IC50 (SK-NEP-1): 9600 nM
IC50 (Ca-Ski): 8300 nM

Clc1ccc(-c2csc(N/N=C/c3ccccn3)n2)cc1
IC50 [17]: > 30000 nM

O=C(CCl)Nc1ccc2nc(SCC(=O)Nc3ccc(Br)cn3)sc2c1
IC50 (A-431): 20 nM
IC50 (HepG2 [18]): 48 nM
IC50 (A549 [19]): 44 nM
IC50 [20]: 1.2 nM
IC50 (SW-620): 4.3 nM

Cc1csc(N/N=C/c2ccccc2)n1
IC50 (MDA-MB-231 [21]): 3.92 µg/mL (≈ 18 µM)
IC50 (HeLa [22]): 11.4 µg/mL (≈ 52.5 µM)
IC50 (MDA-MB-231 [23]): 3.92 µg/mL (≈ 18 µM)
IC50 (HeLa [24]): 11.4 µg/mL (≈ 52.5 µM)

CC(=O)C(C(C)=O)=C1SC=C(n2c(CC#N)nc3ccccc32)N1c1ccccc1
IC50 (A549 [13]): 250 nM
IC50 (SMMC-7721): 250 nM
IC50 (HT-29): 250 nM
IC50 [14]: 250 nM
IC50 (NCI-H460 [10]): 250 nM
IC50 (MKN-45): 250 nM

CC(=O)c1cccc(-c2csc(N3CCOCC3)n2)c1
IC50 [25]: 380 nM
